In ChEMBL document CHEMBL3045972, “Effect of side-chain alteration on hormonal activity of nonsteroidal estrogen antagonists” (2010):

Legend:
Rattus norvegicus [1] = assay: Estrogenic activity in Rattus norvegicus (rat) assessed as increase in uterine weight at 3 mg/kg, sc qd after 3 days relative to control; assay type: functional; conditions: route subcutaneous; for uterine weight increase relative to control at 3 mg/kg: Rattus norvegicus, sc, 72 h, read-out: INH; for uterine weight increase relative to control: 3 mg/kg
[2] = molecular target: T1, Estrogen receptor (Rattus norvegicus) (UniProt P06211); assay: Binding affinity to Charles Foster Rattus norvegicus (rat) uterine 17beta-estradiol receptor cytosolic form relative to estradiol
T1 sequence (whole entry): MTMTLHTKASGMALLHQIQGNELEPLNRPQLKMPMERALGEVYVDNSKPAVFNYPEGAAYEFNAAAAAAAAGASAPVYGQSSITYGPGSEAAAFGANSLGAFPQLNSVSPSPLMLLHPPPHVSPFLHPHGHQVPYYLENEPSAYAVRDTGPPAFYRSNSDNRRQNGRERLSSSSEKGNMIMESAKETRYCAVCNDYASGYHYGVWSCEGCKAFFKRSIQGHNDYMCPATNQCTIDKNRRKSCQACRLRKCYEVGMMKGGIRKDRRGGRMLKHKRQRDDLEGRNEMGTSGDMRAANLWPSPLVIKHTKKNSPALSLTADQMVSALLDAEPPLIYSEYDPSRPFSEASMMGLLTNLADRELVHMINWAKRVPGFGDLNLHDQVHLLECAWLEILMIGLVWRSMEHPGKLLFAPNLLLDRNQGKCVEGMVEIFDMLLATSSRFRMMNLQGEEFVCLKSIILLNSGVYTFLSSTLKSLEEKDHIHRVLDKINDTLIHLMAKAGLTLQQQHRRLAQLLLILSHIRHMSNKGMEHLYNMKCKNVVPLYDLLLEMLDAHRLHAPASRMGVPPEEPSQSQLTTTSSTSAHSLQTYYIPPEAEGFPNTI

Rattus norvegicus [3] = assay: Antiestrogenic activity in Rattus norvegicus Sprague-Dawley (rat) assessed as inhibition of ethynylestradiol-induced uterine weight at 3 mg/kg, po qd administered 3 days measured on day 31 relative to control; assay type: functional; conditions: for inhibition in vivo at 3 mg/kg: Rattus norvegicus, Sprague-Dawley, po
Rattus norvegicus [4] = assay: Antiestrogenic activity in Rattus norvegicus Sprague-Dawley (rat) assessed as inhibition of ethynylestradiol-induced uterine weight at 10 mg/kg, po qd administered 3 days measured on day 31 relative to control; assay type: functional; conditions: for inhibition in vivo at 10 mg/kg: Rattus norvegicus, Sprague-Dawley, po; for inhibition (INH): 10 mg/kg
Rattus norvegicus [5] = assay: Estrogenic activity in Rattus norvegicus (rat) assessed as increase in uterine weight at 10 mg/kg, sc qd after 3 days relative to control; assay type: functional; conditions: route subcutaneous

| Activity [2] | Structure (SMILES) | inhibition in vivo at 10 mg/kg (Rattus norvegicus [4]) | Activity (Rattus norvegicus [5]) | also measured |
| --- | --- | --- | --- | --- |
| 2.1% | COc1ccc2c(c1)OC(C)(C)[C@H](c1ccccc1)[C@H]2c1ccc(O)cc1 | – | – | uterine weight increase relative to control at 3 mg/kg (Rattus norvegicus [1]): 109%; inhibition in vivo at 3 mg/kg (Rattus norvegicus [3]): 50% |
| – | COc1ccc2c(c1)OC(C)(C)[C@H](c1ccccc1)[C@@H]2c1ccc(OC(C)C(=O)O)cc1 (relative stereo) | 3.8% | 44.2% | – |
| 0.011% | COc1ccc2c(c1)OC(C)(C)[C@H](c1ccccc1)[C@@H]2c1ccc(OC(C)C(=O)NN)cc1 (relative stereo) | 1.07% | 110.22% | – |
| – | CCOC(=O)C(C)Oc1ccc([C@@H]2c3ccc(OC)cc3OC(C)(C)[C@H]2c2ccccc2)cc1 (relative stereo) [listing 1 of 2 here] | 3.98% | 43.7% | – |
| – | COc1ccc2c(c1)OC(C)(C)[C@@H](c1ccccc1)[C@@H]2c1ccc(OC(C)C(=O)O)cc1 (relative stereo) | 10.8% | – | Activity (Rattus norvegicus [5]; 10 mg/kg): 21.6% |
| – | COc1ccc2c(c1)OC(C)(C)[C@@H](c1ccccc1)[C@@H]2c1ccc(OC(C)C(=O)NN)cc1 (relative stereo) [listing 1 of 2 here] | – | – | inhibition (INH) (Rattus norvegicus [4]): 12.14%; Activity (Rattus norvegicus [5]; 10 mg/kg): 101.91% |
| < 0.001% | COc1ccc2c(c1)OC(C)(C)[C@H](c1ccccc1)[C@@H]2c1ccc(O)cc1 (relative stereo) | – | 33.6% | – |
| – | CCOC(=O)C(C)Oc1ccc([C@@H]2c3ccc(OC)cc3OC(C)(C)[C@@H]2c2ccccc2)cc1 (relative stereo) | 3.71% | 71.58% | – |
| 0.029% | CCOC(=O)C(C)Oc1ccc([C@@H]2c3ccc(OC)cc3OC(C)(C)[C@H]2c2ccccc2)cc1 (relative stereo) [listing 2 of 2 here] | – | – | – |
| 0.052% | COc1ccc2c(c1)OC(C)(C)[C@@H](c1ccccc1)[C@@H]2c1ccc(OC(C)C(=O)NN)cc1 (relative stereo) [listing 2 of 2 here] | – | – | – |
| – | COc1ccc2c(c1)OC(C)(C)[C@@H](c1ccccc1)[C@@H]2c1ccc(O)cc1 (relative stereo; 1b) [listing 1 of 2 here] | – | – | uterine weight increase relative to control (Rattus norvegicus [1]): 126.83%; inhibition in vivo at 3 mg/kg (Rattus norvegicus [3]): 60% |
| 5.42% | COc1ccc2c(c1)OC(C)(C)[C@@H](c1ccccc1)[C@@H]2c1ccc(O)cc1 (relative stereo; 1b) [listing 2 of 2 here] | – | – | – |
| – | COc1ccc2c(c1)OC(C)(C)[C@@H](c1ccccc1)[C@@H]2c1ccc(O)cc1 (relative stereo; 1c) [listing 1 of 2 here] | – | – | uterine weight increase relative to control (Rattus norvegicus [1]): 165%; inhibition (INH) (Rattus norvegicus [3]; 3 mg/kg): 46.11% |
| 15.7% | COc1ccc2c(c1)OC(C)(C)[C@@H](c1ccccc1)[C@@H]2c1ccc(O)cc1 (relative stereo; 1c) [listing 2 of 2 here] | – | – | – |
| – | CCOC(=O)C(C)Oc1ccc([C@H]2c3ccc(OC)cc3OC(C)(C)[C@@H]2c2ccccc2)cc1 (single isomer, unassigned; (+)) | 14.3% | 0.19% | – |
| – | COc1ccc2c(c1)OC(C)(C)[C@H](c1ccccc1)[C@H]2c1ccc(OC(C)C(=O)O)cc1 (single isomer, unassigned; (+)) | 16.1% | 6.88% | – |
| 0.24% | COc1ccc2c(c1)OC(C)(C)[C@H](c1ccccc1)[C@H]2c1ccc(OC(C)C(=O)NN)cc1 (single isomer, unassigned; (+)) | 6.21% | 6.68% | – |
| – | CCOC(=O)C(C)Oc1ccc([C@@H]2c3ccc(OC)cc3OC(C)(C)[C@H]2c2ccccc2)cc1 (single isomer, unassigned; (-)) | – | – | uterine weight increase relative to control at 3 mg/kg (Rattus norvegicus [1]): 122%; inhibition in vivo at 3 mg/kg (Rattus norvegicus [3]): 40.6% |
| – | COc1ccc2c(c1)OC(C)(C)[C@@H](c1ccccc1)[C@@H]2c1ccc(OC(C)C(=O)NN)cc1 (single isomer, unassigned; (-)) [listing 1 of 2 here] | – | – | inhibition (INH) (Rattus norvegicus [4]): 25.37%; Activity (Rattus norvegicus [5]; 10 mg/kg): 155.02% |
| 0.37% | COc1ccc2c(c1)OC(C)(C)[C@@H](c1ccccc1)[C@@H]2c1ccc(OC(C)C(=O)NN)cc1 (single isomer, unassigned; (-)) [listing 2 of 2 here] | – | – | – |
| – | COc1ccc2c(c1)OC(C)(C)[C@@H](c1ccccc1)[C@@H]2c1ccc(OC(C)C(=O)O)cc1 (stereo in doubt; 3c) [listing 1 of 2 here] | – | – | inhibition (INH) (Rattus norvegicus [4]): 10%; Activity (Rattus norvegicus [5]; 10 mg/kg): 149% |
| 0.037% | COc1ccc2c(c1)OC(C)(C)[C@@H](c1ccccc1)[C@@H]2c1ccc(OC(C)C(=O)O)cc1 (stereo in doubt; 3c) [listing 2 of 2 here] | – | – | – |
